Source: US20240180872A1, “METHODS AND COMPOUNDS OF CANNABIDIOL, MELATONIN AND AKBA FOR TREATING PANCREATIC CANCER” (priority 2021, published 2024)

Experiments:
[1] = system: pancreatic adenocarcinoma associated genes; assay: TaqMan Array gene expression in PANC-1, normalized for GAPDH; conditions: 24 hs, CBD 3.8, MLT 200, AKBA 7.5 micrograms/ml
Method: Total RNA from untreated or CBD, MLT, AKBA alone and in combination treated cell lines was extracted using Rneasy Mini kit (Qiagen, Milan, Italy). One microgram of total RNA from each sample was subjected to reverse transcription in a total volume of 20 μL using the High-Capacity cDNA Archive Kit (Applied Biosystem, Foster City, […], USA) according to the instructions. cDNAs were analyzed by qRT-PCR performed using an IQ5 Multicolor Real time PCR Detection system. Quantitative real-time gene expression was performed with the TaqMan® Array Human Pancreatic Adenocarcinoma 96-well Plate, containing 92 assays to pancreatic adenocarcinoma associated genes and 4 assays to candidate endogenous control genes, was purchased (Thermo Fisher, Grand Island, NY, USA) and used to evaluate the treatments in modulating PDAC-related genes (Table 1). Measurement of different housekeeping genes (GAPDH; HPRT1; GUSB) on the samples was used to normalize mRNA content. The gene expression levels of treated cell lines were expressed as relative fold compared with untreated or vehicle-treated cells.
To elucidate the molecular events induced by CBD, MLT and AKBA alone and in combination, 92 genes involved in PDAC progression and aggressiveness were evaluated by Taqman Array. Both cell lines were treated with CBD, MLT and AKBA alone and in combination, and the molecular pathways of PDAC associated gene were evaluated.
Target mRNA levels were normalized for GAPDH expression.

[2] = system: U251 Glioblastoma cell line; assay: Cytotoxicity assay (MTT, 72 hours, daily administration) in U251; type: cell-based; conditions: Homo sapiens, U-251, read-out: % VIABILITY ± S.D.
From the text: (§1) The combinations were effective in other human tumor cell lines and we tested in glioblastoma cell line and endometrial cancer cell Additional tests include data obtained from two independent experiments, six wells for dose.

[3] = system: PCEM004a endometrial cancer cell line; assay: Cytotoxicity assay (MTT, 72 hours, daily administration) in PCEM004a; type: cell-based; conditions: Homo sapiens, read-out: % VIABILITY ± S.D.
From the text: as §1

[4] = system: MIAPaCa-2 cell line; assay: Cytotoxicity assay (MTT, 72 hours, daily administration) in MIAPaCa-2; conditions: Homo sapiens, MIA PaCa-2, read-out: % VIABILITY ± S.D.
Method: (§2) Human pancreatic ductal adenocarcinoma (PANC-1 and MIAPaCa-2) cell lines were purchased by Sigma Aldrich (Milan, Italy) and cultured in DMEM high glucose medium (EuroClone, Milan, Italy) supplemented with 10% of fetal bovine serum (FBS), 2 mM L-glutamine, 100 IU/mL penicillin, 100 mg streptomycin and 1 mM sodium pyruvate. Cell lines were maintained at 37° C. with 5% CO2 and 95% of humidity.
(§3) 3×10^4 cells/mL were seeded in 96-well plates in a final volume of 100 L/well. After one day of incubation, compounds or vehicles, alone or in combination, were added and six replicates were used for each treatment and all experiments were repeated three times. In all the experiments, the treatment was daily added, after washing with fresh medium. After 72 hours cell viability was investigated by adding 0.8 mg/mL of 3-[4,5-dimethylthiazol-2-yl]-2,5 diphenyl tetrazolium bromide (MTT) (Sigma Aldrich) to the media. After 3 h the supernatant was removed, and the pellet of salt crystals was solubilized with 100 μL/well of DMSO. The absorbance of the sample against a background control was measured at 570 nm using an ELISA reader microliter plate (BioTek Instruments, Winooski, VT, USA).
(§4) Cytotoxicity in PDAC cell lines: The effect of CBD, MLT and AKBA in reducing cell viability was evaluated at 72 hours, post daily administration, in PDAC cell lines. Cells were treated with different doses of CBD, MLT and AKBA (up to 1 mg) and percentage of cell viability was evaluated by the MTT assay. […] The compounds were administered daily for 72 hours, as in previous experiments at the desired doses. […] MTT assay was used to analyse the cell cytotoxicity.

[5] = system: PANC-1 cell line; assay: Cytotoxicity assay (MTT, 72 hours, daily administration) in PANC-1; conditions: Homo sapiens, PANC-1, read-out: % VIABILITY ± S.D.
Method: as §2, §3, §4

**Q.** Which results are given for `C=C(C)[C@@H]1CCC(C)=C[C@H]1c1c(O)cc(CCCCC)cc1O` [CBD, 2-[(1R,6R)-3-methyl-6-prop-1-en-2-ylcyclohex-2-en-1-yl]-5-pentylbenzene-1,3-diol]?
**A.** AKT3 mRNA relative expression ([1]; VEI 0.00): 0.00; ARHGEF7 mRNA relative expression ([1]; VEI 0.00): 0.00; BCL2 mRNA relative expression ([1]; VEI 0.00): 0.00; CCND2 mRNA relative expression ([1]; VEI 0.00): 0.00; CDKN2B mRNA relative expression ([1]; VEI 0.00): 0.35; CYP2E1 mRNA relative expression ([1]; VEI 0.00): 0.00; EGF mRNA relative expression ([1]; VEI 0.00): 0.00; IGF1 mRNA relative expression ([1]; VEI 0.00): 0.00; IL6 mRNA relative expression ([1]; VEI 0.00): 0.00; KDR mRNA relative expression ([1]; VEI 0.00): 0.00; KIT mRNA relative expression ([1]; VEI 0.00): 0.00; MAPK3 mRNA relative expression ([1]; VEI 0.00): 0.01; MMP1 mRNA relative expression ([1]; VEI 0.00): 0.00; MMP3 mRNA relative expression ([1]; VEI 0.00): 0.00; TGFA mRNA relative expression ([1]; VEI 0.00): 0.71; TGFB2 mRNA relative expression ([1]; VEI 0.00): 0.08; JAK2 mRNA relative expression ([1]; VEI 0.01): 0.01; JAK3 mRNA relative expression ([1]; VEI 0.01): 0.01; MMP7 mRNA relative expression ([1]; VEI 0.01): 0.01; MMP9 mRNA relative expression ([1]; VEI 0.01): 0.01; PK3CA mRNA relative expression ([1]; VEI 0.01): 0.02; RAC2 mRNA relative expression ([1]; VEI 0.01): 0.01; RB1 mRNA relative expression ([1]; VEI 0.01): 0.05; TGFB3 mRNA relative expression ([1]; VEI 0.01): 0.00; TGFBR1 mRNA relative expression ([1]; VEI 0.02): 0.03; BRCA2 mRNA relative expression ([1]; VEI 0.03): 0.13; CDKN2D mRNA relative expression ([1]; VEI 0.03): 0.03; MDM2 mRNA relative expression ([1]; VEI 0.03): 0.04; RHOB mRNA relative expression ([1]; VEI 0.03): 0.03; CDKN2C mRNA relative expression ([1]; VEI 0.04): 0.03; PK3R1 mRNA relative expression ([1]; VEI 0.04): 0.03; PTGS2 mRNA relative expression ([1]; VEI 0.04): 0.00; STATSB mRNA relative expression ([1]; VEI 0.04): 0.03; MAPK1 mRNA relative expression ([1]; VEI 0.05): 0.06; SMAD2 mRNA relative expression ([1]; VEI 0.05): 0.06; CCND1 mRNA relative expression ([1]; VEI 0.06): 0.09; MAP2K2 mRNA relative expression ([1]; VEI 0.06): 0.07; PK3CD mRNA relative expression ([1]; VEI 0.06): 0.07; TGFBR2 mRNA relative expression ([1]; VEI 0.06): 0.01; VEGFA mRNA relative expression ([1]; VEI 0.06): 0.03; VEGFB mRNA relative expression ([1]; VEI 0.06): 0.07; CCNA2 mRNA relative expression ([1]; VEI 0.07): 0.01; CCNE2 mRNA relative expression ([1]; VEI 0.07): 0.10; EZF3 mRNA relative expression ([1]; VEI 0.07): 0.07; SMAD4 mRNA relative expression ([1]; VEI 0.07): 0.07; SOS1 mRNA relative expression ([1]; VEI 0.07): 0.06; TGFB1 mRNA relative expression ([1]; VEI 0.07): 0.07; MAP2K1 mRNA relative expression ([1]; VEI 0.08): 0.00; MMP2 mRNA relative expression ([1]; VEI 0.08): 0.06; VEGFC mRNA relative expression ([1]; VEI 0.08): 0.03; CCNE1 mRNA relative expression ([1]; VEI 0.09): 0.08; CDK2 mRNA relative expression ([1]; VEI 0.09): 0.13; KRAS mRNA relative expression ([1]; VEI 0.09): 0.07; RAC1 mRNA relative expression ([1]; VEI 0.09): 0.09; REL mRNA relative expression ([1]; VEI 0.09): 0.10; STAT2 mRNA relative expression ([1]; VEI 0.09): 0.03; CDKN1B mRNA relative expression ([1]; VEI 0.10): 0.09; CDKN2A mRNA relative expression ([1]; VEI 0.10): 0.22; RELA mRNA relative expression ([1]; VEI 0.10): 0.06; AKT1 mRNA relative expression ([1]; VEI 0.11): 0.09; PK3CB mRNA relative expression ([1]; VEI 0.11): 0.08; FIGF mRNA relative expression ([1]; VEI 0.14): 0.09; TP53 mRNA relative expression ([1]; VEI 0.14): 0.24; EZF4 mRNA relative expression ([1]; VEI 0.16): 0.16; NFKB2 mRNA relative expression ([1]; VEI 0.16): 0.12; EZF1 mRNA relative expression ([1]; VEI 0.17): 0.13; SMAD3 mRNA relative expression ([1]; VEI 0.17): 0.16; STAT1 mRNA relative expression ([1]; VEI 0.18): 0.10; BRAF mRNA relative expression ([1]; VEI 0.22): 0.18; BIRC5 mRNA relative expression ([1]; VEI 0.23): 0.09; JAK1 mRNA relative expression ([1]; VEI 0.23): 0.22; CDK4 mRNA relative expression ([1]; VEI 0.24): 0.21; EGFR mRNA relative expression ([1]; VEI 0.24): 0.17; RAF1 mRNA relative expression ([1]; VEI 0.25): 0.01; CCNB1 mRNA relative expression ([1]; VEI 0.27): 0.31; ERBB2 mRNA relative expression ([1]; VEI 0.27): 0.01; SRC mRNA relative expression ([1]; VEI 0.27): 0.03; GRB2 mRNA relative expression ([1]; VEI 0.31): 0.11; BCL2L1 mRNA relative expression ([1]; VEI 0.35): 0.21; HSP90AA1 mRNA relative expression ([1]; VEI 0.35): 0.35; NFKB1 mRNA relative expression ([1]; VEI 0.35): 0.04; RHOA mRNA relative expression ([1]; VEI 0.37): 0.30; ELK1 mRNA relative expression ([1]; VEI 0.41): 0.07; RELB mRNA relative expression ([1]; VEI 0.42): 0.23; CDC42 mRNA relative expression ([1]; VEI 0.45): 0.04; CDKN1A mRNA relative expression ([1]; VEI 0.49): 0.03; AKT2 mRNA relative expression ([1]; VEI 0.50): 0.45; HBEGF mRNA relative expression ([1]; VEI 0.53): 0.11; NOTCH1 mRNA relative expression ([1]; VEI 1.03): 0.02; STAT6 mRNA relative expression ([1]; VEI 1.38): 0.87; STAT3 mRNA relative expression ([1]; VEI 4.45): 0.05; viability at 1.9 µg/mL ([2]; CBD 1.9 micrograms/ml): 100 ± 7.1%; viability at 3.8 µg/mL ([2]; CBD 3.8 micrograms/ml): 100 ± 5.5%; viability at 7.6 µg/mL ([2]; CBD 7.6 micrograms/ml): 97 ± 10.1%; viability at 15.2 µg/mL ([2]; CBD 15.2 micrograms/ml): 65.2 ± 4.3%; viability at 1.9 µg/mL ([3]; CBD 1.9 micrograms/ml): 74.8 ± 7.2%; viability at 3.8 µg/mL ([3]; CBD 3.8 micrograms/ml): 93.2 ± 4.2%; viability at 7.6 µg/mL ([3]; CBD 7.6 micrograms/ml): 93.4 ± 5.4%; viability at 15.2 µg/mL ([3]; CBD 15.2 micrograms/ml): 50.4 ± 3.4%; viability at 1.9 µg/mL [4]: 74.8 ± 7.2%; viability at 3.8 µg/mL [4]: 29.5 ± 1.9%; viability at 7.6 µg/mL [4]: 9.2 ± 0.4%; viability at 15.2 µg/mL [4]: 5.2 ± 0.4%; viability at 1.9 µg/mL [5]: 86.5 ± 7.1%; viability at 3.8 µg/mL [5]: 66.4 ± 5.5%; viability at 7.6 µg/mL [5]: 13.1 ± 1.1%; viability at 15.2 µg/mL [5]: 7.9 ± 0.3%
